{"source": "patent US20100086599A1", "about": "“ORAL MODIFIED RELEASE FORMULATIONS” (KAIROSMED GMBH, priority 2006, published 2010)", "key": {"SHBG": {"biological_target": "T1, SHBG (Homo sapiens, UniProt P04278)", "T1 sequence (P04278 30-402)": "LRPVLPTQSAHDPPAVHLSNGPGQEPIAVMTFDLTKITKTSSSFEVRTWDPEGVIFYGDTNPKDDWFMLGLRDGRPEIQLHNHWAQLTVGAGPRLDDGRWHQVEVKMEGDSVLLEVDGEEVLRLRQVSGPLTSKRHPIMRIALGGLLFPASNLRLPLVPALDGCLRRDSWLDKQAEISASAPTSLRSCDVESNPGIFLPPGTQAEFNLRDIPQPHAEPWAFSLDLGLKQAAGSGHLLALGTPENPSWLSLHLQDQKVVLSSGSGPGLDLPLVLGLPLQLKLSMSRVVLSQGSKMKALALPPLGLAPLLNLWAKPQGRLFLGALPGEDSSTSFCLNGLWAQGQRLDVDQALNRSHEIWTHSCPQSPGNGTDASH", "conditions": "cited from earlier work"}, "[1]": {"conditions": "low pH-values; cited from earlier work"}, "SHBG or CBG serum levels": {"test_system": "SHBG or CBG serum levels", "conditions": "in vivo; cited from earlier work"}, "[2]": {"conditions": "cited from earlier work"}, "[3]": {"test": "pH-dependent solubility and in vitro dissolution of 8-PN", "type": "physicochemical", "text": "The solid oral modified release formulations of this invention show a pH-independent drug release in vitro. This is important as the pH varies considerably in the gastro-intestinal tract and continuous release should be achieved independent of the pH. In contrast to C21-progestins (MPA, CPA, DRSP), however, the solubility of 8-PN is pH-dependent. […] The low acid solubility property of 8-Prenylnaringenin results in vitro in slow drug dissolution at pH 1, whereas the dissolution is fast at higher pH-values such as pH 6.8. The resulting dissolution profiles are different at different pH-values. This problem is solved by the solid oral modified release formulation of this invention. […]"}, "GR": {"biological_target": "T2, GR (Homo sapiens, UniProt P04150)", "T2 sequence (P04150 1-777)": "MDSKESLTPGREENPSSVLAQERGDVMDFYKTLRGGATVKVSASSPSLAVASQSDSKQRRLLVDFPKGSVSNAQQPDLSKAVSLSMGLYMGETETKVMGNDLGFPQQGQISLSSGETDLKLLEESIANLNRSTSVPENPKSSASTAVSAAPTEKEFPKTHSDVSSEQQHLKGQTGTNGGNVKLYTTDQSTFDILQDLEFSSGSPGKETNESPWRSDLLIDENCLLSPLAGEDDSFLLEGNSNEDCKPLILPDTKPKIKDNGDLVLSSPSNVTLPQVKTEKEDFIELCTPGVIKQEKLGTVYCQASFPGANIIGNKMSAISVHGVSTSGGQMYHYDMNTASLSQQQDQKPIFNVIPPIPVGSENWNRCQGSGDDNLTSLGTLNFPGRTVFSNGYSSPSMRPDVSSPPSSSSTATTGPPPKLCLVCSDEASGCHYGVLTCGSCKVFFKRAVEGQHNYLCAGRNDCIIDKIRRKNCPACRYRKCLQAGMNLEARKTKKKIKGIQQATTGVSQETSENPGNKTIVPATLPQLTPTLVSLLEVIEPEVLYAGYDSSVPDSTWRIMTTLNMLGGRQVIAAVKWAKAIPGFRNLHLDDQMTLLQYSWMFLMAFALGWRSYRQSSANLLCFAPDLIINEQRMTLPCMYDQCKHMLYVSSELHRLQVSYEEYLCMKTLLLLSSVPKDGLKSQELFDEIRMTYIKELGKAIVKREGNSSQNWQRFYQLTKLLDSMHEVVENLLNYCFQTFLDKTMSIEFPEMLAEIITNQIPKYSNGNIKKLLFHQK", "conditions": "cited from earlier work"}, "[4]": {"test": "clinical Phase Ia study: pharmacokinetics of oral 8-PN", "type": "in vivo, women", "text": "The pharmacokinetic profile of 8-PN is characterized by a complete oral absorption, a low degree of metabolization (less than 60% of dose) and a high pre-systemic elimination (first-liver-pass excretion, about 55% of dose). The high and unexpected pre-systemic elimination leads to a collection of substantial dose parts in the bile fluid from which these dose parts are secreted into the duodenum when gastric signaling occurs with a meal uptake. Respective dose parts are then absorbed again and reach systemic circulation. Data were taken from the clinical Phase la study and represent two volunteers of the lowest dose group (50 mg 8-Prenylnaringenin).\nTaking the total area under the curve as a measure for 8-Prenyinaringenin systemic availability, the percentage of the area under the second peak (generated by reabsorption of the pre-systemically eliminated and then biliary secreted dose parts) can be used to estimate those dose parts which undergo pre-systemic elimination after oral dosing. On an average of six women investigated this figure is 54±20%.\nRe-increases in drug serum levels show re-absorption of dose parts collected in the bile fluid and subsequently secreted triggered by lunch."}, "estrogen receptor": {"test_system": "estrogen receptor", "conditions": "cited from earlier work"}, "PR": {"biological_target": "T3, PR (Homo sapiens, UniProt P06401)", "T3 sequence (P06401 1-933)": "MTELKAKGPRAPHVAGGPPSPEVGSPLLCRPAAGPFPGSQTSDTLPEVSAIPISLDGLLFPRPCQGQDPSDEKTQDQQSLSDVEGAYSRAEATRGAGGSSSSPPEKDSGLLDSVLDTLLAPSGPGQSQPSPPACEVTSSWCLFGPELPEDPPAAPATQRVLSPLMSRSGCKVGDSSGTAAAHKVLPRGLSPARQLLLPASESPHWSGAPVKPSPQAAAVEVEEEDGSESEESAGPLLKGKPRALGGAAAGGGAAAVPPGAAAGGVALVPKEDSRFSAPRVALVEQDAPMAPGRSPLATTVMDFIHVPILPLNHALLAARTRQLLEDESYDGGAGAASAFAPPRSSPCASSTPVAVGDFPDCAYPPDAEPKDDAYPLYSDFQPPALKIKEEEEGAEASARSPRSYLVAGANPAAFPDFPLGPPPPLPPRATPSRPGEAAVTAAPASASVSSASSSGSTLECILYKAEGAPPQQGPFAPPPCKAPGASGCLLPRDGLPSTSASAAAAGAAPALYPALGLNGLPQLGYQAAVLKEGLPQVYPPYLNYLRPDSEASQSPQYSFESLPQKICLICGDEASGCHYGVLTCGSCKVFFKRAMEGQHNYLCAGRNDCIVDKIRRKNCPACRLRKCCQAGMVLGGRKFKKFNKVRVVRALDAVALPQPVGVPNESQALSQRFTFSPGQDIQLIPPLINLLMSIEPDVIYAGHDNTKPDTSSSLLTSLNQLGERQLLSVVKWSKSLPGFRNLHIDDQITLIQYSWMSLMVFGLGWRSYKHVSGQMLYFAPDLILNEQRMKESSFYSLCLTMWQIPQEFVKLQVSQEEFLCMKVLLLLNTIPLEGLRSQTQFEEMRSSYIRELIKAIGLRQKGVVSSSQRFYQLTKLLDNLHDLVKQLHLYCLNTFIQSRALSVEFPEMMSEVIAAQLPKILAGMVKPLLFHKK", "conditions": "cited from earlier work"}, "CYP isoenzymes": {"test_system": "CYP isoenzymes", "test": "metabolism by CYP isoenzymes", "type": "in vitro ADME"}, "AR": {"biological_target": "T4, AR (Homo sapiens, UniProt P10275)", "T4 sequence (P10275 1-920)": "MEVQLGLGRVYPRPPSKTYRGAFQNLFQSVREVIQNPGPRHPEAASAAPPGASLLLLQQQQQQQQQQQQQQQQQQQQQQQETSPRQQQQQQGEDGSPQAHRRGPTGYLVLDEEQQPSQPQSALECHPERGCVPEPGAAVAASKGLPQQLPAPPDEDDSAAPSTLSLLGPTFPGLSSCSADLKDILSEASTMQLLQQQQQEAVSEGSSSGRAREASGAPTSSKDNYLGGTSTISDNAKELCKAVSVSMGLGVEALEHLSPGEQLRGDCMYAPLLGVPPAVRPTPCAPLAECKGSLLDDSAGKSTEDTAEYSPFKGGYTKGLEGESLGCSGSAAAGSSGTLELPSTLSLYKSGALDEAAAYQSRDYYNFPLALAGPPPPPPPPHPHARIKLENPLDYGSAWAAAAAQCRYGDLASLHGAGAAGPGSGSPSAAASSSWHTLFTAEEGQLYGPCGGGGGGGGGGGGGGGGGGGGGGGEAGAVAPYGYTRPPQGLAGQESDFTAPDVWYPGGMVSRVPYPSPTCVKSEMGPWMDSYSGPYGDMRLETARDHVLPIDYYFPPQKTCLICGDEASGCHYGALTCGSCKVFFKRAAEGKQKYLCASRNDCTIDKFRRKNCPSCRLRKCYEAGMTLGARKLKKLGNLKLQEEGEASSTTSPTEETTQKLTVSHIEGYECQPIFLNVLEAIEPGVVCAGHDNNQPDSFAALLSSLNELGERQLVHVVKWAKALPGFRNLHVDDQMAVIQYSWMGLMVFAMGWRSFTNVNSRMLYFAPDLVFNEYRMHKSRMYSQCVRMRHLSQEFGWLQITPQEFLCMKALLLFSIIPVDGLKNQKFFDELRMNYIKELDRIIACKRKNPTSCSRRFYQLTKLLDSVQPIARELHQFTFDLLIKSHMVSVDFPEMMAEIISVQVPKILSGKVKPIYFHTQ", "conditions": "cited from earlier work"}, "[5]": {"conditions": "cited from earlier work", "remark": "listed apart in the source"}, "[6]": {"conditions": "3 mg oral, daily repeated administration"}, "[7]": {"conditions": "single oral intake of 3 mg DRSP"}}, "note": "“Also recorded” adds a separate entry of the source. Read-outs that look alike come from different tables or passages of the source.", "data": [{"compound": "C[C@]12CCC(=O)C=C1[C@@H]1C[C@@H]1[C@H]1[C@@H]3[C@@H]4C[C@@H]4[C@@]4(CCC(=O)O4)[C@@]3(C)CC[C@@H]12", "note": "[DRSP, Drospirenone]", "values": [{"measurement": "binding to SHBG", "setting": "SHBG", "value": "does not bind"}, {"measurement": "stability (opening of carbolactone ring to the inactive acid)", "setting": "[1]", "value": "sensitive to low pH-values"}, {"measurement": "suppression of EE induced SHBG or CBG serum levels", "setting": "SHBG or CBG serum levels", "value": "does not suppress"}, {"measurement": "AUC", "setting": "[2]; [6]", "value": "about 920 ng×h/ml"}, {"measurement": "maximum serum level", "setting": "[2]; [6]", "value": "about 80 ng/ml"}, {"measurement": "apparent volume of distribution", "setting": "[2]; in vivo", "value": 4, "unit": "L/kg"}, {"measurement": "disposition half-life", "setting": "[2]; in vivo", "value": 31, "unit": "h"}, {"measurement": "metabolism", "setting": "[2]; mainly by CYP3A4", "value": "only slightly metabolized"}, {"measurement": "oral absorption", "setting": "[2]; oral", "value": "complete"}, {"measurement": "AUC0-24h", "setting": "[2]; [7]", "value": 288, "unit": "ng·h/mL"}, {"measurement": "maximum serum levels", "setting": "[2]; [7]", "value": 37, "unit": "ng/mL"}, {"measurement": "time at which maximum serum levels were reached", "setting": "[2]; [7]", "value": 1.7, "unit": "h"}]}, {"compound": "CC(C)=CCc1c(O)cc(O)c2c1OC(c1ccc(O)cc1)CC2=O", "note": "(stereo not shown) [Example 8-PN, 5,7-Dihydroxy-2-(4-hydroxyphenyl)-8-(3-methylbut-2-enyl)-chroman-4-on]", "values": [{"measurement": "solubility", "setting": "[3]; higher at higher pH-values, low at lower pH-values", "value": "pH-dependent"}, {"measurement": "drug dissolution in vitro", "setting": "[3]; pH 1", "value": "slow"}, {"measurement": "drug dissolution in vitro", "setting": "[3]; pH 6.8", "value": "fast"}, {"measurement": "binding or activation of the GR", "setting": "GR", "value": "devoid of binding or activation"}, {"measurement": "degree of metabolization", "setting": "[4]; oral", "value": "less than 60 % of dose"}, {"measurement": "oral absorption", "setting": "[4]; oral", "value": "complete"}, {"measurement": "pre-systemic elimination (first-liver-pass excretion)", "setting": "[4]; oral", "value": "about 55 % of dose"}, {"measurement": "CV of mean AUC", "setting": "[4]; oral dose 250 mg", "value": 42, "unit": "%"}, {"measurement": "CV of mean AUC", "setting": "[4]; oral dose 750 mg", "value": 29, "unit": "%"}, {"measurement": "percentage of the area under the second peak of total AUC (dose parts undergoing pre-systemic elimination)", "setting": "[4]; oral, average of six women", "value": "54±20", "unit": "%"}, {"measurement": "anti-estogenic activity", "setting": "estrogen receptor", "value": "without any anti-estogenic activity"}, {"measurement": "binding or activation of the PR", "setting": "PR", "value": "devoid of binding or activation"}, {"measurement": "metabolism by CYP isoenzymes", "setting": "CYP isoenzymes", "value": "surprisingly low extent of metabolism; also recorded: high metabolic stability"}, {"measurement": "metabolism by CYP isoenzymes", "setting": "CYP isoenzymes; listed as 8-Prenylnaringenin", "value": "high metabolic stability"}, {"measurement": "binding or activation of the AR", "setting": "AR", "value": "devoid of binding or activation"}]}, {"compound": "C[C@]12CC[C@@H]3c4ccc(O)cc4CC[C@H]3[C@@H]1CC[C@@H]2O", "note": "[Example E2, 17β-estradiol]", "values": [{"measurement": "coefficient of variation (CV) of the mean AUC", "setting": "[5]; oral 2 mg E2, N=14", "value": 127, "unit": "%"}, {"measurement": "coefficient of variation (CV) of the mean AUC", "setting": "[5]; oral 4 mg E2, N=14", "value": 91, "unit": "%"}, {"measurement": "coefficient of variation (CV) of the mean AUC", "setting": "[5]; oral 8 mg E2, N=14", "value": 70, "unit": "%"}, {"measurement": "oral bioavailability", "setting": "[5]; oral", "value": "1-3 % of dose"}]}]}
